According to US20170052177A1, “COMPETITION ASSAY” (PharmaDiagnostics NV, priority 2014, published 2017):
Ends that are not written are not given here.

How the values were obtained:
Neutravidin = Neutravidin (Gallus gallus, UniProt P02701); experiment: LSPR competition assay: Neutravidin pre-incubated with HABA or biotin, then biotin-GNR conjugate; assay type: binding; conditions: for ΔRU as a function of the HABA and biotin concentration: fixed Neutravidin, biotin-GNR conjugate, final DMSO 5 w %, increasing concentration of added compound (FIG. 2)
Text: Gold nanorods (GNRs) which are coated with mercaptoundecanoic acid (MUDA) were provided in suspension. The MUDA-coated GNRs provide an outer layer of carboxyl functional groups on their surface. For the conjugation of biotin to the GNRs, a biotin derivative (amino-PEG4-biotin) was used containing a polyethyleneglycol linker (4 monomers) having an amino functional group. More particularly, the carboxyl groups on the GNRs were activated using ethyl(dimethylaminopropyl) carbodiimide (EDC) and N-hydroxysuccinimide (NHS). Then, amino-PEG4-biotin was coupled via its amino functional group to the carboxyl groups provided on the GNRs, thereby providing a biotin-GNR conjugate. Potentially remaining unreacted carboxylic acid groups were blocked via reaction with 2-(2-aminoethoxy)ethanol (AEE). The biotin-GNR conjugate was purified from unreacted EDC, NHS, amino-PEG4-biotin and AEE by buffer exchange using a centrifugal ultrafiltration device.
The determination of the inhibition of the interaction between HABA and Neutravidin according to the methods described herein involves contacting the biotin-GNR conjugate with Neutravidin. The optimal amount of Neutravidin to be contacted with the conjugate was determined via titration. More particularly, a fixed amount of biotin-GNR was incubated with various concentrations of Neutravidin, and the absorbance spectra after incubation was recorded. ΔRU was calculated and plotted as a function of the Neutravidin concentration (FIG. 1). Suitable Neutravidin concentrations are determined as those concentrations which are sufficiently high to provide a detectable signal (ΔRU), provided that the signal is not in the plateau of the dose-response curve. Optimal concentrations are those providing a signal in the linear response range.
A fixed amount of Neutravidin was pre-incubated with different concentrations of HABA and biotin, followed by incubation with a fixed amount of biotin-GNR conjugate. HABA was provided as a solution in DMSO. […] The relative amounts of biotin-GNR and Neutravidin used are determined via titration as described above (A2). […]

MDM2 = MDM2 (Homo sapiens, UniProt Q00987); experiment: LSPR competition assay: MDM2 pre-incubated with nutlin-3 or p53, then p53-GNR conjugate; assay type: binding; conditions: fixed MDM2, p53-GNR conjugate; increasing concentration of added compound (FIGS. 4A and 4B)
MDM2, sequence (Q00987 whole entry, species assumed): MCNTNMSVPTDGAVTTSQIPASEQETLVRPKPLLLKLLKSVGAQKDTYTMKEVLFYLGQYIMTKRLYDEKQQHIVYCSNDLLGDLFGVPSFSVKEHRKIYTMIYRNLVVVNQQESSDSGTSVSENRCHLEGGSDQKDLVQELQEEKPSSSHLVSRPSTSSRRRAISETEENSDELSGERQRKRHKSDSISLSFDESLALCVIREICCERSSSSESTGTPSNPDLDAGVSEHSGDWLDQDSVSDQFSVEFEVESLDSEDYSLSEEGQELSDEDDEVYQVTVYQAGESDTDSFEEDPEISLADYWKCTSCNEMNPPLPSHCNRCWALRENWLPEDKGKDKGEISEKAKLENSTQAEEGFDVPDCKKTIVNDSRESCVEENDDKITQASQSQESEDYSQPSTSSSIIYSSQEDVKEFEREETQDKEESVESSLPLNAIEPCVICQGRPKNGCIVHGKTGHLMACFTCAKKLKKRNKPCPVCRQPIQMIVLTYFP
Method: The determination of the inhibition of the interaction between MDM2 and p53 according to the methods described herein involves contacting the p53-GNR conjugate with MDM2. The optimal amount of MDM2 to be contacted with the conjugate was determined via a similar titration experiment as described above for Neutravidin (A2). ΔRU was calculated and plotted as a function of the MDM2 concentration (FIG. 3).

Neutravidin, sequence (P02701 25-152): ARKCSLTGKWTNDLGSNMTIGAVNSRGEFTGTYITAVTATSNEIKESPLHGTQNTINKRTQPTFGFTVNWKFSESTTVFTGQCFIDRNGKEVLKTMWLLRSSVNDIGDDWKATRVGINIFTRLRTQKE

ΔRU as a function of the added amount of nutlin-3 and p53 (MDM2)	Molecule	ΔRU as a function of the HABA and biotin concentration (Neutravidin)	relative affinity to Neutravidin (Neutravidin; from concentration needed for significant reduction of ΔRU (FIG. 2))
–	O=C(O)c1ccccc1N=Nc1ccc(O)cc1 [HABA, (2-(4-hydroxyazobenzene)benzoic acid)]	ΔRU decreases	lower affinity to Neutravidin than biotin
–	O=C(O)CCCC[C@@H]1SC[C@@H]2NC(=O)N[C@@H]21 [biotin]	ΔRU decreases	–
ΔRU decreases	p53: p53 peptide (Sequence: CGSGSGSGSGSRFMDYWEGL); p53 protein also known as cellular tumor antigen p53 (also: conjugated to gold nanorods, site not given here)	–	–
